In the assay the test system is P388. As to the kind of experiment: Cytotoxicity against mouse P388 cells. The settings on record: read-out: ED50 (the source's name). It is filed as functional.

The values that follow come from ChEMBL document CHEMBL1142563, “Isolation and structure of phakellistatin 14 from the Western Pacific marine sponge Phakellia sp” (2005).

Converted amounts (≈) assume the structure as drawn. Where a SMILES comes first, the peptide text is derived from it. [ ]: non-standard residue; d: D form. Met(O) = CS(=O)CC[C@H](N)C(=O)O

For the compound `CC[C@H](C)[C@@H]1NC(=O)[C@H](C)NC(=O)[C@H](CC[S+](C)[O-])NC(=O)[C@H](C)NC(=O)[C@H](CC(=O)OC)NC(=O)[C@H](Cc2ccccc2)NC(=O)[C@@H]2CCCN2C1=O` (stereo partly specified) [PHAKELLISTATIN 14] (cyclo(AIPFD(OMe)A[Met(O)])), the EC50 was determined as 5 µg/mL (≈ 6.44 µM).
